What was measured:
[1] = Whole blood radioactivity of 3H-etoposide with/without oral cyclosporin (Example 6, NP960102); type: in vivo, rats; details: Grp C: CsA 5/PO, then Etoposide 1/PO + CsA 5/PO
[2] = male, Sprague-Dawley, rat, in vivo
[3] = test system: highly resistant human KB carcinoma cells; details: cited from earlier work
[4] = Whole blood radioactivity of oral 3H-etoposide with oral ketoconazole (Example 7, NP960501); type: in vivo, rats; details: ketoconazole 2, 10, 50 mg/kg oral
[5] = Total radioactivity and unchanged paclitaxel pharmacokinetics, rats n = 10 (Tables 5A, 5B)
[6] = Whole blood and urine radioactivity after radiolabeled paclitaxel with/without cyclosporin (Example 3)
[7] = rat, in vivo, iv
[8] = Serum paclitaxel after IV or oral paclitaxel with/without oral cyclosporin (Example 1); type: in vivo, Sprague Dawley rats
[9] = rat, in vivo, po
[10] = in vivo, po; cited from earlier work

COc1cc([C@@H]2c3cc4c(cc3[C@@H](O[C@@H]3O[C@@H]5CO[C@@H](C)O[C@H]5[C@H](O)[C@H]3O)[C@H]3COC(=O)[C@H]23)OCO4)cc(OC)c1O [Etoposide, etoposide]
F% [1]: about 96%

CC(=O)N1CCN(c2ccc(OCC3COC(Cn4ccnc4)(c4ccc(Cl)cc4Cl)O3)cc2)CC1 (centres unmarked) [Ketoconazole, ketoconazole]
dose-response of oral absorption of radioactivity [2]: no further increase in oral absorption of radioactivity
reversal of MDR [3]: reverse MDR
effect on oral absorption of etoposide compared to etoposide alone [4]: did not enhance the oral absorption of etoposide

CC(=O)O[C@H]1C(=O)[C@@]2(C)[C@H]([C@H](OC(=O)c3ccccc3)[C@]3(O)C[C@H](OC(=O)[C@H](O)[C@@H](NC(=O)c4ccccc4)c4ccccc4)C(C)=C1C3(C)C)[C@]1(OC(C)=O)CO[C@@H]1C[C@@H]2O [Paclitaxel, paclitaxel]
AUC0-24hr, unchanged paclitaxel ([5]; PO + CsA): 4.27 µg·h/mL
AUC0-[…], unchanged paclitaxel ([5]; PO + CsA): 5.41 µg·h/mL
AUC0-[…], unchanged paclitaxel ([5]; PO Dose): 0.349 µg·h/mL
AUC0-24hr, unchanged paclitaxel ([5]; PO Dose 9 mg/kg): 0.314 µg·h/mL
AUC0-00, total radioactivity ([5]; Paclitaxel Oral 9 mg/kg): 4.5 μg equiv.hr/mL
AUC0-24hr, total radioactivity ([5]; Paclitaxel Oral 9 mg/kg): 1.4 μg equiv.hr/mL
AUC0-00, total radioactivity ([5]; Paclitaxel Oral + CsA): 15.0 μg equiv.hr/mL
AUC0-24hr, total radioactivity ([5]; Paclitaxel Oral + CsA 5 mg/kg 1 hr prior to and concomitantly): 8.1 μg equiv.hr/mL
AUC0-24, total radioactivity in blood ([6]; PO (B)): 3.2 μg eq × hr/ml
Tmax ([6]; PO (B) column as printed): 25 h
AUC0-24, total radioactivity in blood ([6]; PO+CsA (C), CsA 1 hr prior to and simultaneously): 12.1 μg eq × hr/ml
% Dose in urine (4-24 hr) [7]: 2.2 % Dose
bioavailability of the paclitaxel in serum ([8]; oral paclitaxel in the absence of cyclosporin): less than 1%
bioavailability of the paclitaxel in serum ([8]; third group: cyclosporin 1 h prior to and with oral paclitaxel): 6-7%
F (%) Based on AUC0-00, total radioactivity [9]: 16.4%
absorbed when administered orally [10]: less than 1%

— patent US6610735B2, “Method, compositions and kits for increasing the oral bioavailability of pharmaceutical agents” (Baker Norton Pharmaceuticals, Inc., priority 1995, dated 2003)
